We go through two compounds from PMC10484922, “Discovery of a selective and biologically active low-molecular weight antagonist of human interleukin-1β” (Nature Communications, 2023).

Molecules are shown by their SMILES. Values joined by “and” are separate entries in the source; they are usually repeats but may differ in a detail not shown here. Identical values can stand only once. Like-named read-outs stand apart in the source and are kept apart here. Bounds are passed on as bounds.

The target of assay [1] is T1, IL-1β (Homo sapiens, UniProt P01584). Kind of assay: protein-observed 1H-13C-HMQC NMR binding (I/Io of Leu60 Cδ1H3). More on the design: Mature hIL-1β was expressed in Escherichia coli; made in house; host or cells: Escherichia coli BL21 (DE3), pET17b. To be noted: hIL-1β 50 µM, 500 µM compound. The procedure:
^1H–^13C- and ^1H–^15N-HMQC spectra were recorded on Bruker AVANCE 600 MHz and 800 MHz spectrometers equipped with TXI-cryocooled probeheads. In ligand binding experiments, protein concentrations were typically 50 μM in PBS, pH 7.4. Backbone assignments of hIL-1β in the ligand-bound state and unliganded state were obtained by a combination of a 3D triple resonance experiment HNCACB and a ^15N-edited NOESY spectrum, which were processed using TOPSPIN 3.2 and analyzed using CcpNmr AnalysisAssign 3.1.0[46]. ^15N-CEST experiments were run at weak B1 radiofrequency fields of 25 and 12.5 Hz on a Bruker AVANCE 800 MHz spectrometer with 113 increments and a total sweep width of 28 ppm in the pseudo-3D dimension. Peak intensities were extracted by fitting pseudo-Voigt lineshape models using peakipy (https://github.com/j-brady/peakipy). Fitted peak intensities were subsequently used to generate CEST profiles, and exchange parameters were fitted using ChemEx (https://github.com/gbouvignies/ChemEx).
Supplementary Figure 2. 13C-NMR and 19F-NMR reporter assays to monitor early
13C-HMQC spectra of hIL-1b (50 µM) were acquired in the presence (red) and absence (blue) of 500
µM compound and rows were extracted at the w1-frequency of the peak corresponding to Leu60 […]

The target of assay [2] is T1, IL-1β. Kind of assay: TR-FRET IL-1β/hIL-1R1 receptor displacement assay. In kind it is biochemical. On the procedure: After 1 h incubation at room temperature, hIL-1R1 (1–332; Alexa 647 labeled; 50 nM final concentration) and anti-His-Europium W1024 (Perkin Elmer; Cat.No. AD0401, 1 nM final concentration) were added to a final volume of 10 μl per well. […] All experiments were run in triplicates.
For orientation: In TR-FRET formats the signal depends on donor and acceptor labels being close together.

Assay [3] relates to normal human dermal fibroblasts stimulated with hIL-1β. Kind of assay: Human fibroblast IL-6 release assay, hIL-1β stimulated. In kind it is cell-based. More on the design: IL-6, average / inhibition, replicates of EXP1, EXP2, EXP3 / inhibition, Mean / IL-1beta (mean, SD): mean readout (IL-6 release): unit not given here. To be noted: for IL-6, average / IL-6, curve fit: per experiment. On the procedure:
We used HEK-Blue™ IL-1β cells that respond specifically to IL-1 (# hkb-il1b, InvivoGen). These cells can detect IL-1α and IL-1β, as these cytokines bind to the same receptor, IL-1R1. They express a Seap reporter gene under the control of the IFN-β minimal promoter fused to five NF-kappaB and five AP-1 binding sites. Thirty microliters (300,000 cells/ml) per well of a 384-well plate were plated overnight. Cells were then stimulated with graded concentrations of cytokines (hIL-1α or hIL-1β) in the absence or presence of canakinumab (Ilaris®, ILARI LYVI 150MG 22GLW.012, batch U003 0409)[22], anakinra (Kineret®, 100 mg/0.67 ml injectable solution, Sobi)[23], or compound (S)-2 (compounds were pre-mixed for 1 h with the cytokine prior to addition to cells) and further incubated overnight before assessment of Seap activity.
Normal human dermal fibroblasts (NHDF) from Clonetics^TM (LONZA, Cat # CC-2509 (NHDF-Neo), Lot # 0000234242, used at passage ≤14) were seeded at a density of 5000 cells/well in 100 μL of culture medium using 96-well plates (flat bottom, TCT). Treatment with cytokines/compounds was performed as described above. Cells were incubated for another 6 h and were subsequently spun down (320g/3 min). IL-6 was measured in the supernatant by ELISA (BioLegend, # 430503) or HTRF (Cisbio, #62HIL06PEH).

Setting [4] is: Il1b wt, read-out: TR-FRET IC50, individual experiments.
[5] abbreviates: Homo sapiens, Fibroblast, 6 h, human dermal fibroblasts, hIL-1β, 6 h, read-out: IL-6 release IC50.
The mark [6] stands for this setting: Homo sapiens, Fibroblast, source data, read-out: IL-6 IC50, individual experiments.

T1 sequence (P01584 117-269): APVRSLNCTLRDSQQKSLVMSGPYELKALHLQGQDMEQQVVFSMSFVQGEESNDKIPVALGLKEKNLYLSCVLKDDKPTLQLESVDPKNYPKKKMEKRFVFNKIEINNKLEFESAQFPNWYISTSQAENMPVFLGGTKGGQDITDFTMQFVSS

One may read the IC50 as the midpoint of a concentration-inhibition curve. For `Cc1ccc2c(c1)NC(=O)C2(O)c1cc(-c2ccc(C(=O)O)cc2)ccc1O` (stereo not drawn) [Compound 10], at IL-1β [1], the “I/Io (ratio of peak intensities of Leu60 Cδ1H3 in 1H-13C-HMQC spectra in presence and absence of ligand)” value was 0.1 (N = 1). Besides, the IC50 at IL-1β [2] (setting [4]) was 200 µM and 134 µM; on IL-1β [2] (read-out: TR-FRET IL-1β IC50) it was 178 ± 38 µM; in assay [3] (setting [5]), 117 µM; in assay [3] (setting [6]), 117 µM. The “IL-6, average” value in assay [3] (0.3 uM) was 4.183; in assay [3] (1.2 uM), 7.793; in assay [3] (3 uM) it was 7.203; in assay [3] (12 uM) it was 4.254; in assay [3] (33 uM (Cpd 10/11 series)), 6.569; in assay [3] (99 uM), 29.3257. Moreover, the “IL-6, average” value in assay [3] (300 uM) was 100.311. The “IL-6, curve fit” value is on record as 2.28E-12 in assay [3] (0.3 uM); 3.34E-09 in assay [3] (1.2 uM); 4.25E-07 in assay [3] (3 uM); 0.0006137 in assay [3] (12 uM); 0.1292 in assay [3] (33 uM (Cpd 10/11 series)); 29.6479 in assay [3] (99 uM). Further, the “IL-6, curve fit” value in assay [3] (300 uM) worked out at 99.3118.
`O=C(O)c1ccccc1-c1ccc(O)c(C2(O)C(=O)Nc3cc(Cl)ccc32)c1` (stereo not drawn) [Compound 11]: the “I/Io (ratio of peak intensities of Leu60 Cδ1H3 in 1H-13C-HMQC spectra in presence and absence of ligand)” value at IL-1β [1] is <0.1 (N = 1). Further, the IC50 at IL-1β [2] (setting [4]) is 140 µM and 130 µM and 138 µM and 97.9 µM and 136 µM and 106 µM and 133 µM; on IL-1β [2] (read-out: TR-FRET IL-1β IC50), 126 ± 17 µM; on IL-1β [2] (summary, read-out: TR-FRET IL-1beta IC50, AVRG), 126 µM; in assay [3] (setting [5]), 112 ± 1 µM; in assay [3] (setting [6]), 111 µM; in assay [3] (source data, read-out: IL-6 IC50, individual experiments) it was 113 µM. Besides, the “IL-6, average” value is 38.1953 and 26.9144 in assay [3] (99 uM); 100.608 and 103.181 in assay [3] (300 uM). Also, the “IL-6, curve fit” value in assay [3] (99 uM) is 38.6393 and 27.5847; in assay [3] (300 uM), 97.9064 and 99.9483.
